Assays:
wild type HSV-1 = assay: HSV yield reduction assay (plaque assay) with HIV integrase inhibitors; assay type: cell-based; conditions: 100 μM; FIG. 6
Description: At 48 hours post infection, viral yield samples were harvested and the yield was determined by plaque assay. Values are presented as the percent yield remaining, relative to the DMSO vehicle control treatment.
Cells were infected with wild type HSV-1 at a multiplicity of infection of 0.01 plaque-forming units per cell and treated with the indicated concentration of the HIV integrase inhibitor specified. At 48 hours post infection, viral yield samples were harvested and the yield was determined by plaque assay. Values are presented as the percent yield remaining, relative to the DMSO vehicle control treatment.

HCMV UL89 = HCMV UL89 (Human cytomegalovirus, UniProt P16732); conditions: cited from earlier work
HSV-1 KOS virus = assay: Screen of 118-D-24 derivatives on HSV-1 KOS replication in Hep2 cells; assay type: cell-based; conditions: 250 μM, MOI=0.01, 48 hours, FIG. 12
Description: To evaluate the effects of 118-D-24 derivatives on HSV replication, a panel of derivatives (Table 1) (Zhao, X. Z., 2008, J. Med. Chem., vol. 51, pages 251-259) were screened for their ability to inhibit HSV-1 KOS virus replication in Hep2 cells. Hep2 cells were plated in a 6-well plate and incubated overnight to reach confluency. The cells were then inoculated with HSV-1 KOS virus at MOI=0.01 for 1 hour. Following inoculation, the virus inoculum was replaced with DMEV medium containing 118-D-24 or a derivative of 118-D-24. After 48 hours, samples were harvested by adding an equal volume of 10% non-fat milk and immediately frozen at −80° C. Samples were freeze-thawed three times to rupture the cell membranes and allow the release of virus. Virus titers were determined by titration on Vero cells. The 100% yield represents the viral titer in samples without drug treatment. […] Hep2 cells or (FIG. 14A) or HFF cells (FIG. 14B) were infected with HSV-1 virus (KOS strain) at MOI of 0.01. Samples were then processed and percent yield remaining values were calculated. EC50 and EC90 values were calculated using nonlinear regression curve fit with a variable slope. GaraphPad Prism 5 software was used for all analyses. (FIG. 14C) Cytotoxicity of XZ45 on the viability of Hep2 cells during a 48-hour incubation period was evaluated using the Promega cell titer glo assay, as described by the manufacturer. The reported values are percent […] remaining relative to the […] from cells grown in media containing DMSO alone. CC50 value was determined as described above. FIGS. 14A and 14B show the effects of XZ45 on HSV-1 replication in Hep2 cells (14A) and normal human foreskin fibroblasts (14B) and the cytotoxicity of XZ45 in Hep2 cells is shown in FIG. 14C.

[1] = test system: human cytomegalovirus (HCMV); assay: XZ45 viral yield assay, HCMV; assay type: cell-based; conditions: FIG. 16
Description: (§1) Hep2 cells were infected with HSV-1 strain KOS, strain F, or HSV-2 strain G at MOI of 0.01. The infected cells were grown in media containing increasing concentrations of XZ45 or DMSO for 48 hours. Samples were harvested and viral yield was determined by plaque assay on Vero cells. The reported values are percent yield remaining relative to cells grown in media containing DMSO alone (FIG. 15A). Hep2 cells (FIG. 15B) or HFF cells (FIG. 15C) were infected with HSV-1 virus (KOS strain) at MOI of 10 or 0.01 or with human cytomegalovirus (HCMV) (FIG. 16). Samples were then processed and percent yield remaining values were calculated as describe above.

ICP8 [2] = molecular target: T1, ICP8 (Human herpesvirus 1, UniProt P17470); assay: ssDNA binding by ICP8 (EMSA, ssDNA beads pull down, ssDNA-cellulose); conditions: three assays; FIG. 18A-18C
Description: The effect of XZ45 on ssDNA binding by ICP8 was measured by EMSA assay with purified ICP8 protein using ^32P-labled polynucleotide ssDNA probe (FIG. 18A); ssDNA beads pull down assay (FIG. 18B), and ICP8 binding to ssDNA-cellulose (FIG. 18C).

ICP8 [3] = molecular target: T1, ICP8; assay: D-loop assay of ICP8 mediated recombination; assay type: biochemical; conditions: 0, 10, 20, or 40 μM XZ45; FIG. 20
Description: To further test the effect of XZ45 on ICP8 mediated recombination a D-loop assay was used. A double stranded DNA probe was mixed with a single stranded DNA oligonucleotide in the presence or absence of ICP8 with 0, 10, 20, or 40 μM XZ45. Following incubation, the reaction products were analyzed by electrophoresis through a native gel.

HSV recombination = HSV recombination in Hep2 cells coinfected with 8LacZ and hr99; assay type: cell-based; conditions: 20 hours after infection, compared to PAA, FIG. 19
Description: To test the effect of XZ45 on HSV recombination during viral replication, 8LacZ (deletion of ul29) and hr99 (deletion of ul5) virus were used to coinfect Hep2 cells in the presence of XZ45 or PAA. At 20 hours after infection, samples were harvested and progeny virus were tittered on Vero cells and V529 cells to determine the viral titer of recombinated virus and total virus. The recombination rate reflects the ratio between the titer of recombinated virus and total virus.

HSV-1 KOS viral DNA = assay: XZ45 viral DNA synthesis (real-time PCR) in Hep2 cells; assay type: cell-based; conditions: 10 μM XZ45, MOI=10, FIG. 17A
Description: (§2) Hep2 cells were infected with HSV-1 KOS at an MOI=10 in the presence or absence of 10 μM XZ45. Total DNA was harvested at the times indicated, and viral DNA levels in each sample were determined by real-time PCR and were normalized to the levels of cellular DNA. […] Hep2 cells were infected with HSV-1 KOS in the presence or absence of 10 μM XZ45. Lysates were prepared for immunoblotting at the indicated times. Polypeptides were resolved by SDS-PAGE, transferred to a PVDF membrane, and probed for representative immediate-early (ICP27), early (ICP8), and late (gC) gene products.

[4] = test system: HSV-1 KOS late (gC) gene products; assay: XZ45 viral gene expression by immunoblotting in Hep2 cells; assay type: cell-based; conditions: 10 μM XZ45, FIG. 17B
Description: as §2

[5] = test system: HSV-1 strain KOS, strain F; assay: XZ45 viral yield assay, HSV-1; assay type: cell-based; conditions: Hep2 or HFF cells, 48 hours; FIG. 15
Description: as §1

HSV-2 strain G = assay: XZ45 viral yield assay, HSV-2; assay type: cell-based; conditions: Hep2 cells, MOI 0.01, 48 hours; FIG. 15A
Description: as §1

T1 sequence (P17470 whole entry): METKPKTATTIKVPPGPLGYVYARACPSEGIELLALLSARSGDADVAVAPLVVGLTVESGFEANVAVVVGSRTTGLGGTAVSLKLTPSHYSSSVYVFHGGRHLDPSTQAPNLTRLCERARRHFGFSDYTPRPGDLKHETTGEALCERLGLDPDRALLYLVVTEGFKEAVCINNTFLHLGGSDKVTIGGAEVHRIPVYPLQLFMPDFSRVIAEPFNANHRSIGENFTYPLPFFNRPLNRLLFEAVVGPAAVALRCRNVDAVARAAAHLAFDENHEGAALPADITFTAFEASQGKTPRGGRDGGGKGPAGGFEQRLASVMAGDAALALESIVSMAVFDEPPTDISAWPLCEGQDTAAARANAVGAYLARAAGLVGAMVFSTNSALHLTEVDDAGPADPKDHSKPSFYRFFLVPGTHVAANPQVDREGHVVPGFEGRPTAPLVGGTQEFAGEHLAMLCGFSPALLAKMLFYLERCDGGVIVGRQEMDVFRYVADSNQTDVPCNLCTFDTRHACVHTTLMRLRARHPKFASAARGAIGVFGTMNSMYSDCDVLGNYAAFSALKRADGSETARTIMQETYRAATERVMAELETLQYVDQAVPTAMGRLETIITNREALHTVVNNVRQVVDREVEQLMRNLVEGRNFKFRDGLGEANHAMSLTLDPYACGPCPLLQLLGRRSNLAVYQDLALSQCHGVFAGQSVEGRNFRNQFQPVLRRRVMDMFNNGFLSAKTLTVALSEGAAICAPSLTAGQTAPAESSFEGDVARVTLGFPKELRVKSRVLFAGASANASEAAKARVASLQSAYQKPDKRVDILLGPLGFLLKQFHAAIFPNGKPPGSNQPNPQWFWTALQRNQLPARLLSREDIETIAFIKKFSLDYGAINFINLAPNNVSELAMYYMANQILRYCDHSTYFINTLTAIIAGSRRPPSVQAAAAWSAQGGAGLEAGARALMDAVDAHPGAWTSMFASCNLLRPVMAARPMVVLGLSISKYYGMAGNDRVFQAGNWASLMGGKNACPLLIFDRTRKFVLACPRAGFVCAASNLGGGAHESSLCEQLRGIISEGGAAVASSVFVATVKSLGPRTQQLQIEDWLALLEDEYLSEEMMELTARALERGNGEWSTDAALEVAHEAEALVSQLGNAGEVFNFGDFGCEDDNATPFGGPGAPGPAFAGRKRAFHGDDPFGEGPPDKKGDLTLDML
Sequence of HCMV UL89 (P16732 whole entry): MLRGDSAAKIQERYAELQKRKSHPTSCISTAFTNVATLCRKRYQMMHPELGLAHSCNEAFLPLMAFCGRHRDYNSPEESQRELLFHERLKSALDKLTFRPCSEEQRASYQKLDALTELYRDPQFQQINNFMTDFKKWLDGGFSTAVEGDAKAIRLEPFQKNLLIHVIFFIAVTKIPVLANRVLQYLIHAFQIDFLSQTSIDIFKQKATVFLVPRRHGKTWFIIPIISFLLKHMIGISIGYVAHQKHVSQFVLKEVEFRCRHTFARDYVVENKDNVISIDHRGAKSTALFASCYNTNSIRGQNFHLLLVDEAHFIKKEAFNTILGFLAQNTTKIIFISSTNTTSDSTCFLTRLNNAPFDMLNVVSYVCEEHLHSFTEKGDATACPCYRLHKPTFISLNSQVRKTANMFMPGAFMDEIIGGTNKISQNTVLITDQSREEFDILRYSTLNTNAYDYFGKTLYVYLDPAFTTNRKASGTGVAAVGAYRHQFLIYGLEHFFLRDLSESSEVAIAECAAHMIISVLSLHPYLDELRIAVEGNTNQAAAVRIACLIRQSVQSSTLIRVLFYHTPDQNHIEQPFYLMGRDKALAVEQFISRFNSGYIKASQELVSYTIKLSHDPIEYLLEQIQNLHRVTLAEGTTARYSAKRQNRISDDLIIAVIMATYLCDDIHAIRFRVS

Structure (SMILES): Cc1nnc(C(=O)NC(C)(C)c2nc(C(=O)NCc3ccc(F)cc3)c(O)c(=O)n2C)o1 [Raltegravir]
- reduction of HSV viral yield (wild type HSV-1): greater than 96%
- HCMV UL89 activity (HCMV UL89): inhibit HCMV UL89 activity

Structure (SMILES): [N-]=[N+]=NCc1cccc(CN2C(=O)c3ccc(O)c(O)c3C2=O)c1 [XZ100]
- viral yield (in words) (HSV-1 KOS virus): significant reductions in viral yield

Structure (SMILES): O=C(NNC(=O)c1cccc(O)c1O)c1ccccc1O [XZ45]
- viral yield (in words) (HSV-1 KOS virus): significant reductions in viral yield
- replication of HCMV [1]: inhibits the replication
- ssDNA binding by ICP8 (ICP8 [2]): does not affect ssDNA binding
- ICP8 mediated formation of D-loops (ICP8 [3]): inhibited the ICP8 mediated formation of D-loops
- HSV recombination (recombination rate) (HSV recombination): significantly inhibited HSV recombination
- viral DNA synthesis (HSV-1 KOS viral DNA): Inhibits Viral DNA Synthesis
- expression of the late gene (gC) products [4]: significantly inhibited
- replication of HSV-1 [5]: inhibits the replication
- replication of HSV-2 (HSV-2 strain G): inhibits the replication

Structure (SMILES): O=C(NNC(=O)c1cccc(O)c1O)c1cccc(O)c1O [XZ15]
- viral yield (in words) (HSV-1 KOS virus): significant reductions in viral yield

Structure (SMILES): O=C(NN1Cc2ccc(O)c(O)c2C1=O)c1cccc(O)c1O [XZ49]
- viral yield (in words) (HSV-1 KOS virus): significant reductions in viral yield

Structure (SMILES): O=C1c2c(ccc(O)c2O)CN1N1Cc2ccc(O)c(O)c2C1=O [XZ48]
- viral yield (in words) (HSV-1 KOS virus): significant reductions in viral yield

Structure (SMILES): O=C1c2c(ccc(O)c2O)CN1N1C(=O)c2ccc(O)c(O)c2C1=O [XZ50]
- viral yield (in words) (HSV-1 KOS virus): significant reductions in viral yield

Structure (SMILES): [N-]=[N+]=NCc1cccc(CN2Cc3ccc(O)c(O)c3C2=O)c1 [XZ99]
- viral yield (in words) (HSV-1 KOS virus): significant reductions in viral yield

— US20140243348A1, “COMPOSITIONS AND METHODS FOR TREATING HERPES VIRUSES” (President and Fellows of Harvard College, priority 2011, published 2014)
